Test system: rice
Assay: Low temperature assay on rice seedlings
Format: in vivo
Procedure: According to a low temperature assay, we measured parameters including plant height, number of leaf, area of leaf, number of tiller, weight of root at low temperature to completely determine effects of the natural brassinolide analogues on the resistance to low temperature of a plant.
The natural brassinolide analogues, BR1, BR2, BR3, BR4, BR5 and BR6, used herein, were those prepared by the method of Example 1. Respectively the analogues were dissolved into 95% (V/V) ethanol solution, and then diluted with pure water to 1 mg/L, 0.1 mg/L, 0.01 mg/L, 0.001 mg/L and 0.0001 mg/L. In addition, pure water was used as a control.
After rice seeds were disinfected by using 5% sodium hypochlorite solution treatment, they were rinsed with distilled water until their pH>7, placed into a petri dish in a dark incubator, and cultured by using water at 30° C.±2° C. for 9 days. Then respectively the nine-day-old etiolated seedlings of rice were immersed in the above solutions containing different concentrations of the natural brassinolide analogues or pure water, and cultured at the temperature of 1° C., 2° C., 3° C., 4° C. and 5° C. for 24 hr. The parameters including plant height, area of leaf and weight of root after 3, 6, 9 and 12 days and number of leaf and number of tiller after 12 days were measured.

**Q.** For `CC(C)(O)CC[C@@H](O)[C@](C)(O)[C@H]1CC[C@@]2(O)[C@@H]3CC(=O)[C@@H]4C[C@@H](O)[C@@H](O)C[C@]4(C)[C@H]3CC[C@]12C` [BR6], which Area of leaf (0.001 mg/l, 2 °C, 6 days) is on record?
**A.** 11.8 cm^2

**Q.** And the Height (0.001 mg/l, 2 °C, 6 days)?
**A.** 7.1 cm

**Q.** What about the Weight of root (0.001 mg/l, 2 °C, 6 days) of the same molecule?
**A.** 3.0 g

**Q.** What about the Area of leaf (0.001 mg/l, 2 °C, 9 days) of the same molecule?
**A.** 12.7 cm^2

**Q.** And the Height (0.001 mg/l, 2 °C, 9 days)?
**A.** 7.2 cm

**Q.** And the Weight of root (0.001 mg/l, 2 °C, 9 days)?
**A.** 3.2 g

**Q.** And the Area of leaf (0.001 mg/l, 2 °C, 12 days)?
**A.** 13.1 cm^2

**Q.** What about the Height (0.001 mg/l, 2 °C, 12 days) of the same molecule?
**A.** 7.3 cm

**Q.** What about the Number of leaf (0.001 mg/l, 2 °C, 12 days) of the same molecule?
**A.** 3

**Q.** And the Number of tiller (0.001 mg/l, 2 °C, 12 days)?
**A.** 3

**Q.** And the Weight of root (0.001 mg/l, 2 °C, 12 days)?
**A.** 3.9 g

**Q.** What about the Area of leaf (0.001 mg/l, 3 °C, 3 days) of the same molecule?
**A.** 10.4 cm^2

**Q.** And the Height (0.001 mg/l, 3 °C, 3 days)?
**A.** 7 cm

**Q.** And the Weight of root (0.001 mg/l, 3 °C, 3 days)?
**A.** 2.5 g

**Q.** What about the Area of leaf (0.001 mg/l, 3 °C, 6 days) of the same molecule?
**A.** 12 cm^2

**Q.** And the Height (0.001 mg/l, 3 °C, 6 days)?
**A.** 7.1 cm

**Q.** What about the Weight of root (0.001 mg/l, 3 °C, 6 days) of the same molecule?
**A.** 2.6 g

**Q.** What about the Area of leaf (0.001 mg/l, 3 °C, 9 days) of the same molecule?
**A.** 12.6 cm^2

**Q.** What about the Height (0.001 mg/l, 3 °C, 9 days) of the same molecule?
**A.** 7.4 cm

**Q.** And the Weight of root (0.001 mg/l, 3 °C, 9 days)?
**A.** 2.9 g

**Q.** And the Area of leaf (0.001 mg/l, 3 °C, 12 days)?
**A.** 13.2 cm^2

**Q.** What about the Height (0.001 mg/l, 3 °C, 12 days) of the same molecule?
**A.** 7.4 cm

**Q.** And the Number of leaf (0.001 mg/l, 3 °C, 12 days)?
**A.** 3

**Q.** What about the Number of tiller (0.001 mg/l, 3 °C, 12 days) of the same molecule?
**A.** 2

**Q.** And the Weight of root (0.001 mg/l, 3 °C, 12 days)?
**A.** 2.9 g

**Q.** What about the Area of leaf (0.001 mg/l, 4 °C, 3 days) of the same molecule?
**A.** 10.6 cm^2

**Q.** And the Height (0.001 mg/l, 4 °C, 3 days)?
**A.** 7.1 cm

**Q.** And the Weight of root (0.001 mg/l, 4 °C, 3 days)?
**A.** 2.5 g

**Q.** And the Area of leaf (0.001 mg/l, 4 °C, 6 days)?
**A.** 12.4 cm^2

**Q.** What about the Height (0.001 mg/l, 4 °C, 6 days) of the same molecule?
**A.** 7.3 cm

**Q.** What about the Weight of root (0.001 mg/l, 4 °C, 6 days) of the same molecule?
**A.** 2.6 g

**Q.** And the Area of leaf (0.001 mg/l, 4 °C, 9 days)?
**A.** 13.1 cm^2

**Q.** And the Height (0.001 mg/l, 4 °C, 9 days)?
**A.** 7.5 cm

**Q.** And the Weight of root (0.001 mg/l, 4 °C, 9 days)?
**A.** 2.9 g

**Q.** And the Area of leaf (0.001 mg/l, 4 °C, 12 days)?
**A.** 13.5 cm^2

**Q.** And the Height (0.001 mg/l, 4 °C, 12 days)?
**A.** 7.7 cm

**Q.** What about the Number of leaf (0.001 mg/l, 4 °C, 12 days) of the same molecule?
**A.** 3

**Q.** And the Number of tiller (0.001 mg/l, 4 °C, 12 days)?
**A.** 2

**Q.** And the Weight of root (0.001 mg/l, 4 °C, 12 days)?
**A.** 2.9 g

**Q.** What about the Area of leaf (0.001 mg/l, 5 °C, 3 days) of the same molecule?
**A.** 10.7 cm^2

**Q.** And the Height (0.001 mg/l, 5 °C, 3 days)?
**A.** 7.5 cm

**Q.** And the Weight of root (0.001 mg/l, 5 °C, 3 days)?
**A.** 2.8 g

**Q.** And the Area of leaf (0.001 mg/l, 5 °C, 6 days)?
**A.** 14.6 cm^2

**Q.** What about the Height (0.001 mg/l, 5 °C, 6 days) of the same molecule?
**A.** 7.8 cm

**Q.** What about the Weight of root (0.001 mg/l, 5 °C, 6 days) of the same molecule?
**A.** 2.7 g

**Q.** And the Area of leaf (0.001 mg/l, 5 °C, 9 days)?
**A.** 16 cm^2

**Q.** And the Height (0.001 mg/l, 5 °C, 9 days)?
**A.** 7.9 cm

**Q.** And the Weight of root (0.001 mg/l, 5 °C, 9 days)?
**A.** 3.0 g

**Q.** And the Area of leaf (0.001 mg/l, 5 °C, 12 days)?
**A.** 17 cm^2

**Q.** And the Height (0.001 mg/l, 5 °C, 12 days)?
**A.** 8.2 cm

**Q.** What about the Number of leaf (0.001 mg/l, 5 °C, 12 days) of the same molecule?
**A.** 3

**Q.** What about the Number of tiller (0.001 mg/l, 5 °C, 12 days) of the same molecule?
**A.** 3

**Q.** What about the Weight of root (0.001 mg/l, 5 °C, 12 days) of the same molecule?
**A.** 3.7 g

**Q.** What about the Area of leaf (0.01 mg/l, 1 °C, 3 days) of the same molecule?
**A.** 10 cm^2

**Q.** And the Height (0.01 mg/l, 1 °C, 3 days)?
**A.** 7.0 cm

**Q.** What about the Weight of root (0.01 mg/l, 1 °C, 3 days) of the same molecule?
**A.** 2.8 g

**Q.** What about the Area of leaf (0.01 mg/l, 1 °C, 6 days) of the same molecule?
**A.** 11.9 cm^2

**Q.** What about the Height (0.01 mg/l, 1 °C, 6 days) of the same molecule?
**A.** 7.2 cm

**Q.** And the Weight of root (0.01 mg/l, 1 °C, 6 days)?
**A.** 3.0 g

**Q.** What about the Area of leaf (0.01 mg/l, 1 °C, 9 days) of the same molecule?
**A.** 12.9 cm^2

**Q.** And the Height (0.01 mg/l, 1 °C, 9 days)?
**A.** 7.3 cm

**Q.** And the Weight of root (0.01 mg/l, 1 °C, 9 days)?
**A.** 3.4 g

**Q.** And the Area of leaf (0.01 mg/l, 1 °C, 12 days)?
**A.** 13.6 cm^2

**Q.** What about the Height (0.01 mg/l, 1 °C, 12 days) of the same molecule?
**A.** 7.4 cm

**Q.** And the Number of leaf (0.01 mg/l, 1 °C, 12 days)?
**A.** 3

**Q.** What about the Number of tiller (0.01 mg/l, 1 °C, 12 days) of the same molecule?
**A.** 3

**Q.** And the Weight of root (0.01 mg/l, 1 °C, 12 days)?
**A.** 3.9 g

**Q.** What about the Area of leaf (0.01 mg/l, 2 °C, 3 days) of the same molecule?
**A.** 10.6 cm^2

**Q.** And the Height (0.01 mg/l, 2 °C, 3 days)?
**A.** 7.0 cm

**Q.** What about the Weight of root (0.01 mg/l, 2 °C, 3 days) of the same molecule?
**A.** 2.8 g

**Q.** And the Area of leaf (0.01 mg/l, 2 °C, 6 days)?
**A.** 11.8 cm^2

**Q.** What about the Height (0.01 mg/l, 2 °C, 6 days) of the same molecule?
**A.** 7.2 cm

**Q.** What about the Weight of root (0.01 mg/l, 2 °C, 6 days) of the same molecule?
**A.** 3.0 g

**Q.** What about the Area of leaf (0.01 mg/l, 2 °C, 9 days) of the same molecule?
**A.** 12.8 cm^2

**Q.** What about the Height (0.01 mg/l, 2 °C, 9 days) of the same molecule?
**A.** 7.3 cm

**Q.** What about the Weight of root (0.01 mg/l, 2 °C, 9 days) of the same molecule?
**A.** 3.1 g

**Q.** And the Area of leaf (0.01 mg/l, 2 °C, 12 days)?
**A.** 13.4 cm^2

**Q.** What about the Height (0.01 mg/l, 2 °C, 12 days) of the same molecule?
**A.** 7.5 cm

**Q.** And the Number of leaf (0.01 mg/l, 2 °C, 12 days)?
**A.** 3

**Q.** What about the Number of tiller (0.01 mg/l, 2 °C, 12 days) of the same molecule?
**A.** 3

**Q.** What about the Weight of root (0.01 mg/l, 2 °C, 12 days) of the same molecule?
**A.** 3.2 g

**Q.** What about the Area of leaf (0.01 mg/l, 3 °C, 3 days) of the same molecule?
**A.** 10.4 cm^2

**Q.** And the Height (0.01 mg/l, 3 °C, 3 days)?
**A.** 7 cm

**Q.** What about the Weight of root (0.01 mg/l, 3 °C, 3 days) of the same molecule?
**A.** 2.5 g

**Q.** What about the Area of leaf (0.01 mg/l, 3 °C, 6 days) of the same molecule?
**A.** 12 cm^2

**Q.** What about the Height (0.01 mg/l, 3 °C, 6 days) of the same molecule?
**A.** 7.2 cm

**Q.** And the Weight of root (0.01 mg/l, 3 °C, 6 days)?
**A.** 2.6 g

**Q.** And the Area of leaf (0.01 mg/l, 3 °C, 9 days)?
**A.** 12.6 cm^2

— US9326506B2, “Preparation method, agricultural composition and applications of natural brassinolide analogs” (CHENGDU NEWSUN CROPSCIENCE CO., LTD, priority 2012, dated 2016)
